Experimental findings from ChEMBL document CHEMBL1134530, “Synthesis and biological activity of 7-oxo substituted analogues of 5-deaza-5,6,7,8-tetrahydrofolic acid (5-DATHF) and 5,10-dideaza-5,6,7,8-tetrahydrofolic acid (DDATHF)” (J Med Chem, 2001) are described below.

≈ marks a conversion by molar mass, not a printed value.

The test system of the assay is CCRF-CEM. As to the kind of experiment: Compound was tested for cytotoxic activity in CCRF-CEM Human Leukemia cells by in vitro cytotoxicity assay. Type of assay: functional, cell-based.
Usually IC50 stands for the point on the concentration scale where inhibition reaches its midpoint. Low values mean greater potency, high ones weaker potency. For `Nc1nc(O)c2c(n1)NCC(CCc1ccc(C(=O)NC(CCC(=O)O)C(=O)O)cc1)C2` (stereo not given), the IC50 was found to be 7 ng/mL (≈ 0.0158 µM). Take `CN(CC1Cc2c(O)nc(N)nc2NC1=O)c1ccc(C(=O)NC(CCC(=O)O)C(=O)O)cc1` (stereo not given): the concentration for half-maximal inhibition (IC50) is above 20000 ng/mL. With `Nc1nc(O)c2c(n1)NC(=O)C(CCc1ccc(C(=O)NC(CCC(=O)O)C(=O)O)cc1)C2` (stereo not given) the figure was above 20000 ng/mL; with `Nc1nc(O)c2c(n1)NC(=O)C(CNc1ccc(C(=O)NC(CCC(=O)O)C(=O)O)cc1)C2` (stereo not given), above 20000 ng/mL. The same measure for `CN(Cc1cnc2nc(N)nc(N)c2n1)c1ccc(C(=O)N[C@@H](CCC(=O)O)C(=O)O)cc1` [METHOTREXATE]: 4 ng/mL (≈ 0.0088 µM).
